Laboratory results reported in patent US4215069A, “Arylthiovinylcyclopropanecarboxylate intermediates” (FMC Corporation, priority 1979, dated 1980).

Tests used:
Assay type in all cases: in vivo
[1] = test system: pea aphid (Acyrthosiphon pisum [Harris]); assay: Initial contact activity against pea aphid (percent kill); settings: 72 hours exposure, read-out: Percent Kill PA, initial activity
Experimental: (§1) The test compound was dissolved in a small amount of acetone, and the acetone solution was dispersed in water containing one drop of isooctylphenyl polyethoxyethanol to make a solution having 1250 ppm (w/w) active ingredient. Aliquots of this solution were diluted with an appropriate amount of water to provide solutions containing various concentrations of active ingredient. Test organisms and techniques were as follows: the activity against Mexican bean beetle (Epilachna varivestis Muls.) and southern armyworm (Spodoptera eridania [Cram.]) was evaluated by dipping the leaves of pinto bean plants into the test solution and infesting the leaves with the appropriate immature-form insects when the foliage had dried. The activity against the pea aphid (Acyrthosiphon pisum [Harris]) was evaluated on broad bean plants whose leaves were dipped before infestation with adult aphids. The activity against twospotted spider mites (Tetranychus urticae Koch) was evaluated on pinto bean plants whose leaves were dipped after infestation with adult mites. The activity against the milkweed bug (Oncopeltus faciatus [Dallas]) was evaluated by spraying the test solutions into glass dishes or jars containing the adult insects. Following application of the compound and infestation the tests were maintained in a holding room at 80° F. and 50% relative humidity for an exposure period of 72 hours. At the end of this time the dead and living insects or mites were counted and the percent kill was calculated. Results of these tests are summarized in Table I. Most of the compounds tested were active against all the insects.

[2] = test system: southern armyworm (Spodoptera eridania [Cram.]); assay: Initial contact activity against southern armyworm (percent kill); settings: 72 hours exposure, read-out: Percent Kill AW, initial activity
Experimental: as §1

[3] = test system: twospotted spider mites (Tetranychus urticae Koch); assay: Initial contact activity against twospotted spider mite (percent kill); settings: 72 hours exposure, read-out: Percent Kill SM, initial activity
Experimental: as §1

[4] = test system: Mexican bean beetle (Epilachna varivestis Muls.); assay: Initial contact activity against Mexican bean beetle (percent kill); settings: 72 hours exposure, read-out: Percent Kill MBB, initial activity
Experimental: as §1

[5] = test system: milkweed bug (Oncopeltus faciatus [Dallas]); assay: Initial contact activity against milkweed bug (percent kill); settings: 72 hours exposure, read-out: Percent Kill MWB, initial activity
Experimental: as §1

| Compound | mortality at 78 ppm [1] | mortality at 312 ppm [1] | mortality at 1250 ppm [1] | mortality at 78 ppm [2] | mortality at 312 ppm [2] | mortality at 1250 ppm [2] | mortality at 1250 ppm [3] | mortality at 20 ppm [4] | mortality at 78 ppm [4] | mortality at 312 ppm [4] | mortality at 78 ppm [5] | mortality at 312 ppm [5] | mortality at 1250 ppm [5] | mortality at 78 ppm [3] | mortality at 312 ppm [3] |
| --- | --- | --- | --- | --- | --- | --- | --- | --- | --- | --- | --- | --- | --- | --- | --- |
| CC1(C)C(C=C(Br)Sc2ccccc2)C1C(=O)OCc1cccc(Oc2ccccc2)c1 (mixture of isomers) [Example 10, 3-phenoxybenzyl cis,trans-3-[2-(E,Z)-bromo-2-phenylthioethenyl]-2,2-dimethylcyclopropanecarboxylate] | 24% | 94% | 95% | 0% | 44% | 100% | 81% | 72% | 95% | 94% | 5% | 71% | 100% | – | – |
| CC1(C)C(C=C(Cl)Sc2ccc(F)cc2)C1C(=O)OC(C#N)c1cccc(Oc2ccccc2)c1 (mixture of isomers) [Example 8, α-cyano-3-phenoxybenzyl cis,trans-3-[2-(E,Z)-chloro-2-(4-fluorophenylthio)ethenyl]-2,2-dimethylcyclopropanecarboxylate] | 46% | 94% | 93% | 40% | 80% | 90% | 100% | 100% | 100% | 100% | 75% | 100% | 100% | – | – |
| CC1(C)C(C=CSc2ccc(F)cc2)C1C(=O)OCc1cccc(Oc2ccccc2)c1 (mixture of isomers) [Example 5, 3-phenoxybenzyl cis,trans-3-[2-(E,Z)-(4-fluorophenylthio)ethenyl]-2,2-dimethylcyclopropanecarboxylate] | 0% | 45% | 35% | 0% | 0% | 7% | 0% | 33% | 35% | 95% | 0% | 5% | 15% | 0% | 0% |
| CC1(C)C(C=CSc2ccc(F)cc2)C1C(=O)OC(C#N)c1cccc(Oc2ccccc2)c1 (mixture of isomers) [Example 6, α-cyano-3-phenoxybenzyl cis,trans-3-[2-(E,Z)-(4-fluorophenylthio)ethenyl]-2,2-dimethylcyclopropanecarboxylate] | 0% | 10% | 100% | 0% | 0% | 56% | 0% | 68% | 94% | 100% | 5% | 38% | 100% | 0% | 0% |
| CC1(C)C(C=C(Cl)Sc2ccc(Cl)cc2)C1C(=O)OCc1cccc(Oc2ccccc2)c1 (mixture of isomers) [Example 9, 3-phenoxybenzyl cis,trans-3-[2-(E,Z)-chloro-2-(4-chlorophenylthio)ethenyl]-2,2-dimethylcyclopropanecarboxylate] | 71% | 100% | 100% | 0% | 0% | 20% | 0% | 100% | 100% | 100% | 0% | 70% | 90% | – | – |
